Results from ChEMBL document CHEMBL3885861, “Open TG-GATES”.

Species on record: Rattus norvegicus
Assay: Open TG-GATES - Regimen: Daily Repeat
Assay type: toxicity, organism-based, Sprague-Dawley
Design: regimen Daily Repeat, gender Male, age 6 weeks
Settings: in vivo, po, 0 mg/kg, route gavage, dose level Control; for APTT / Bas / Eos / Fbg / Hb / Ht / Lym / MCH / MCHC / MCV / Mono / Neu / PT / Plat / RBC / Ret / WBC: tissue Blood; for KIDNEY_L / KIDNEY_R / KIDNEY_TOTAL: tissue Kidney; for LIVER: tissue Liver; for A/G / ALP / ALT / AST / BUN / CRE / Ca / Cl / DBIL / GLC / IP / K / LDH / Na / PL / RALB / TBIL / TC / TG / TP / gamma-GTP: tissue Plasma

`CC(S)C(=O)NCC(=O)O` (configuration not stated) [TIOPRONIN] was tested, and the TERMINAL_BW (72 h, time 3 day) was 222.4 g, the APTT (72 h, time 3 day) was 22.6 s and the Bas (72 h, time 3 day) was 0%. It also gave an Eos (72 h, time 3 day) of 1%, a Fbg (72 h, time 3 day) of 300.2 mg/dL and a Hb (72 h, time 3 day) of 13.5 g/dL. It also gave a Ht (72 h, time 3 day) of 40.8%, a Lym (72 h, time 3 day) of 81.6% and an MCH (72 h, time 3 day) of 20.9 pg. It also gave an MCHC (72 h, time 3 day) of 33.1%, an MCV (72 h, time 3 day) of 63 fL and a Mono (72 h, time 3 day) of 2.6%. It also gave a Neu (72 h, time 3 day) of 14.2%, a PT (72 h, time 3 day) of 15.7 s and a Plat (72 h, time 3 day) of 112.4 x10_4/uL. The RBC (72 h, time 3 day) was 647.2 x10_4/ul, the Ret (72 h, time 3 day) was 6.8% and the WBC (72 h, time 3 day) was 142.5 x10_2/uL. For the same compound, the KIDNEY_L (72 h, time 3 day) was 1 g, the KIDNEY_R (72 h, time 3 day) was 1 g and the KIDNEY_TOTAL (72 h, time 3 day) was 2 g. It also gave an LIVER (72 h, time 3 day) of 10.5 g, an A/G (72 h, time 3 day) of 1.1 and an ALP (72 h, time 3 day) of 1395.4 IU/L. For the same compound, the ALT (72 h, time 3 day) was 46.2 IU/L, the AST (72 h, time 3 day) was 73.8 IU/L and the BUN (72 h, time 3 day) was 17.4 mg/dL. It also gave a CRE (72 h, time 3 day) of 0.2 mg/dL, a Ca (72 h, time 3 day) of 10.5 mg/dL and a Cl (72 h, time 3 day) of 106 meq/L. For the same compound, the DBIL (72 h, time 3 day) was 0 mg/dL, the GLC (72 h, time 3 day) was 202 mg/dL and the IP (72 h, time 3 day) was 7.2 mg/dL. The K (72 h, time 3 day) was 4.3 meq/L, the LDH (72 h, time 3 day) was 188 IU/L and the Na (72 h, time 3 day) was 140.8 meq/L. For the same compound, the PL (72 h, time 3 day) was 137.6 mg/dL, the RALB (72 h, time 3 day) was 2.9 g/dL and the TBIL (72 h, time 3 day) was 0.004 mg/dL. It also gave a TC (72 h, time 3 day) of 75 mg/dL, a TG (72 h, time 3 day) of 86.6 mg/dL and a TP (72 h, time 3 day) of 5.5 g/dL. It also gave a gamma-GTP (72 h, time 3 day) of 1.6 IU/L, a TERMINAL_BW ([…], time 7 day) of 250.2 g and a TERMINAL_BW ([…], time 14 day) of 315.5 g. For the same compound, the TERMINAL_BW ([…], time 28 day) was 385.3 g, the APTT ([…], time 7 day) was 21.4 s and the Bas ([…], time 7 day) was 0%. The Eos ([…], time 7 day) was 0.8%, the Fbg ([…], time 7 day) was 311.2 mg/dL and the Hb ([…], time 7 day) was 13.8 g/dL. For the same compound, the Ht ([…], time 7 day) was 40.6%, the Lym ([…], time 7 day) was 83% and the MCH ([…], time 7 day) was 20.7 pg. It also gave an MCHC ([…], time 7 day) of 33.9%, an MCV ([…], time 7 day) of 61 fL and a Mono ([…], time 7 day) of 2%. It also gave a Neu ([…], time 7 day) of 13.4%, a PT ([…], time 7 day) of 15.4 s and a Plat ([…], time 7 day) of 118.9 x10_4/uL. The RBC ([…], time 7 day) was 667 x10_4/ul, the Ret ([…], time 7 day) was 5.6% and the WBC ([…], time 7 day) was 124.9 x10_2/uL. The APTT ([…], time 14 day) was 22.9 s, the Bas ([…], time 14 day) was 0% and the Eos ([…], time 14 day) was 1%. For the same compound, the Fbg ([…], time 14 day) was 299.2 mg/dL, the Hb ([…], time 14 day) was 14.1 g/dL and the Ht ([…], time 14 day) was 40.4%. For the same compound, the Lym ([…], time 14 day) was 82.6%, the MCH ([…], time 14 day) was 20.5 pg and the MCHC ([…], time 14 day) was 34.8%. For the same compound, the MCV ([…], time 14 day) was 58.9 fL, the Mono ([…], time 14 day) was 2.2% and the Neu ([…], time 14 day) was 14%. For the same compound, the PT ([…], time 14 day) was 15.6 s, the Plat ([…], time 14 day) was 118.7 x10_4/uL and the RBC ([…], time 14 day) was 686.8 x10_4/ul. For the same compound, the Ret ([…], time 14 day) was 5.3%, the WBC ([…], time 14 day) was 128.8 x10_2/uL and the APTT ([…], time 28 day) was 24.5 s. For the same compound, the Bas ([…], time 28 day) was 0%, the Eos ([…], time 28 day) was 1% and the Fbg ([…], time 28 day) was 305.6 mg/dL. The Hb ([…], time 28 day) was 15.3 g/dL, the Ht ([…], time 28 day) was 43.2% and the Lym ([…], time 28 day) was 81.8%. For the same compound, the MCH ([…], time 28 day) was 19.6 pg, the MCHC ([…], time 28 day) was 35.3% and the MCV ([…], time 28 day) was 55.5 fL. It also gave a Mono ([…], time 28 day) of 1.8%, a Neu ([…], time 28 day) of 14.2% and a PT ([…], time 28 day) of 16 s. The Plat ([…], time 28 day) was 91.2 x10_4/uL, the RBC ([…], time 28 day) was 778.2 x10_4/ul and the Ret ([…], time 28 day) was 2.8%. For the same compound, the WBC ([…], time 28 day) was 114.1 x10_2/uL, the KIDNEY_L ([…], time 7 day) was 1.1 g and the KIDNEY_R ([…], time 7 day) was 1.1 g. It also gave a KIDNEY_TOTAL ([…], time 7 day) of 2.2 g, a KIDNEY_L ([…], time 14 day) of 1.2 g and a KIDNEY_R ([…], time 14 day) of 1.2 g. The KIDNEY_TOTAL ([…], time 14 day) was 2.4 g, the KIDNEY_L ([…], time 28 day) was 1.3 g and the KIDNEY_R ([…], time 28 day) was 1.4 g. The KIDNEY_TOTAL ([…], time 28 day) was 2.7 g, the LIVER ([…], time 7 day) was 11.5 g and the LIVER ([…], time 14 day) was 13.7 g. The LIVER ([…], time 28 day) was 15.9 g, the A/G ([…], time 7 day) was 1.2 and the ALP ([…], time 7 day) was 1704.2 IU/L. For the same compound, the ALT ([…], time 7 day) was 37.4 IU/L, the AST ([…], time 7 day) was 68.6 IU/L and the BUN ([…], time 7 day) was 18.8 mg/dL. It also gave a CRE ([…], time 7 day) of 0.2 mg/dL, a Ca ([…], time 7 day) of 10.7 mg/dL and a Cl ([…], time 7 day) of 107.2 meq/L. For the same compound, the DBIL ([…], time 7 day) was 0 mg/dL, the GLC ([…], time 7 day) was 191.8 mg/dL and the IP ([…], time 7 day) was 7.1 mg/dL. It also gave a K ([…], time 7 day) of 4.5 meq/L, an LDH ([…], time 7 day) of 146.4 IU/L and a Na ([…], time 7 day) of 141.6 meq/L. For the same compound, the PL ([…], time 7 day) was 158.6 mg/dL, the RALB ([…], time 7 day) was 3 g/dL and the TBIL ([…], time 7 day) was 0.004 mg/dL. For the same compound, the TC ([…], time 7 day) was 83.2 mg/dL, the TG ([…], time 7 day) was 107.2 mg/dL and the TP ([…], time 7 day) was 5.4 g/dL. For the same compound, the gamma-GTP ([…], time 7 day) was 1.8 IU/L, the A/G ([…], time 14 day) was 1.3 and the ALP ([…], time 14 day) was 1485.6 IU/L. For the same compound, the ALT ([…], time 14 day) was 37 IU/L, the AST ([…], time 14 day) was 63.4 IU/L and the BUN ([…], time 14 day) was 19 mg/dL. It also gave a CRE ([…], time 14 day) of 0.2 mg/dL, a Ca ([…], time 14 day) of 10.3 mg/dL and a Cl ([…], time 14 day) of 105 meq/L. The DBIL ([…], time 14 day) was 0 mg/dL, the GLC ([…], time 14 day) was 205.8 mg/dL and the IP ([…], time 14 day) was 6.9 mg/dL. The K ([…], time 14 day) was 4.5 meq/L, the LDH ([…], time 14 day) was 157.8 IU/L and the Na ([…], time 14 day) was 139.2 meq/L. It also gave a PL ([…], time 14 day) of 135.6 mg/dL, an RALB ([…], time 14 day) of 3.1 g/dL and a TBIL ([…], time 14 day) of 0.006 mg/dL. The TC ([…], time 14 day) was 63.6 mg/dL, the TG ([…], time 14 day) was 135.6 mg/dL and the TP ([…], time 14 day) was 5.6 g/dL. It also gave a gamma-GTP ([…], time 14 day) of 2.6 IU/L, an A/G ([…], time 28 day) of 1.2 and an ALP ([…], time 28 day) of 1102.4 IU/L. The ALT ([…], time 28 day) was 35 IU/L, the AST ([…], time 28 day) was 61.4 IU/L and the BUN ([…], time 28 day) was 19.2 mg/dL. It also gave a CRE ([…], time 28 day) of 0.2 mg/dL, a Ca ([…], time 28 day) of 10.8 mg/dL and a Cl ([…], time 28 day) of 106.8 meq/L. The DBIL ([…], time 28 day) was 0 mg/dL, the GLC ([…], time 28 day) was 202.6 mg/dL and the IP ([…], time 28 day) was 6.7 mg/dL. For the same compound, the K ([…], time 28 day) was 4.1 meq/L, the LDH ([…], time 28 day) was 152.6 IU/L and the Na ([…], time 28 day) was 143.2 meq/L. For the same compound, the PL ([…], time 28 day) was 151.4 mg/dL, the RALB ([…], time 28 day) was 3.3 g/dL and the TBIL ([…], time 28 day) was 0.01 mg/dL. The TC ([…], time 28 day) was 78.2 mg/dL, the TG ([…], time 28 day) was 135.4 mg/dL and the TP ([…], time 28 day) was 5.9 g/dL. It also gave a gamma-GTP ([…], time 28 day) of 2 IU/L.
